For six compounds, AC50 results are on record in ChEMBL document CHEMBL5291721, “A preclinical secondary pharmacology resource illuminates target-adverse drug reaction associations of marketed drugs” (Nat Commun, 2023).

One assay addresses T1, B1 bradykinin receptor (Homo sapiens, UniProt P46663).
T1 sequence (P46663 whole entry): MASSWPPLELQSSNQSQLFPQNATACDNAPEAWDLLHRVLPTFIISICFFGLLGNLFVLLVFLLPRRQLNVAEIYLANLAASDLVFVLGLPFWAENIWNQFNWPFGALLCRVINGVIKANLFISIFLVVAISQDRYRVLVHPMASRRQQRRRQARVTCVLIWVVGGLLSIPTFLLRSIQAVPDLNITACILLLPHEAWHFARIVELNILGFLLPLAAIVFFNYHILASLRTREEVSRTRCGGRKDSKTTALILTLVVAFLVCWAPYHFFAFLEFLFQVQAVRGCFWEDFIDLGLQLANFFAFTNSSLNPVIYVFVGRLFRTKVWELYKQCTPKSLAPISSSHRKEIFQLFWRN

Assay [1] addresses T2, Corticotropin-releasing factor receptor 2 (Homo sapiens, UniProt Q13324).
T2 sequence (Q13324 whole entry): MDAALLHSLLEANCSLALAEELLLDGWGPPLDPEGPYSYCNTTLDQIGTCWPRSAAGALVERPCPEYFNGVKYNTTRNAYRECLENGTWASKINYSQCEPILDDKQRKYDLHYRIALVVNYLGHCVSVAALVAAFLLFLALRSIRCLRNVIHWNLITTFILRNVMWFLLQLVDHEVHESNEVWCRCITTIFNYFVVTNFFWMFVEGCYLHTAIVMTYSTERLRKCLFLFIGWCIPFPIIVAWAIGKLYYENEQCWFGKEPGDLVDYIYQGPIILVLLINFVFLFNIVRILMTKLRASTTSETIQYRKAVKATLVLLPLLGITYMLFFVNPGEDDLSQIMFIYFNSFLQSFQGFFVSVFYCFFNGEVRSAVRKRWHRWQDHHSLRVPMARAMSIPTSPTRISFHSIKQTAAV

Assay [2] has as its target T3, Gastric inhibitory polypeptide receptor (Homo sapiens, UniProt P48546).
T3 sequence (P48546 whole entry): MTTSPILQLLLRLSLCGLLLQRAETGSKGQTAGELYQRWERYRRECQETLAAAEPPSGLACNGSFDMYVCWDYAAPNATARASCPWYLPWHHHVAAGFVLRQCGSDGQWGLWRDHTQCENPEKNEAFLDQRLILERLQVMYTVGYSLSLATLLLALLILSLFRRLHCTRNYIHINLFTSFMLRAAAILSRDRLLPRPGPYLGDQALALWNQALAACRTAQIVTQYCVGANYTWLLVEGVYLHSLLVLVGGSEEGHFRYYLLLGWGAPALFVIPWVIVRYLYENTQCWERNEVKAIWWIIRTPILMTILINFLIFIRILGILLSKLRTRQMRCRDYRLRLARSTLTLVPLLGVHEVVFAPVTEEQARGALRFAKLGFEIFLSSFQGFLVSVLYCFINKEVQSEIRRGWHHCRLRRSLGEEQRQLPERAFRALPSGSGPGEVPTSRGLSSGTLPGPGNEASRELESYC

For assay [3], the target named is T4, Neuropeptide Y receptor type 2 (Homo sapiens, UniProt P49146).
T4 sequence (P49146 whole entry): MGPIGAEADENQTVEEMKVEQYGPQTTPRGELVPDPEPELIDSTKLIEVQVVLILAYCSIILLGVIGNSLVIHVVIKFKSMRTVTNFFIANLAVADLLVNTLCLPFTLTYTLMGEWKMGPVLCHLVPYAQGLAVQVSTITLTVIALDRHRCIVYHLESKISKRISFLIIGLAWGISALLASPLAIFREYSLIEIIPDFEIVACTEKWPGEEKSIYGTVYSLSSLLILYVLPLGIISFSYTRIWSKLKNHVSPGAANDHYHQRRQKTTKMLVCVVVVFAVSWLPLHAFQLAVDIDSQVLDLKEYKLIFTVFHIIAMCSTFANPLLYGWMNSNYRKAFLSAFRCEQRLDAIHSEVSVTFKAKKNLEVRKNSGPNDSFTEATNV

Assay [4] addresses Neurotensin receptor type 1 (Homo sapiens, UniProt P30989).
Assay [5] addresses Sodium channel protein type 5 subunit alpha (Homo sapiens, UniProt Q14524). In kind it is functional, cell-based.
The target in the next assay is Substance-P receptor (Homo sapiens, UniProt P25103).
The target in assay [6] is Beta-1 adrenergic receptor (Homo sapiens, UniProt P08588). The format is functional, cell-based.
Assay [7] deals with T5, Alpha-1A adrenergic receptor (Homo sapiens, UniProt P35348).
T5 sequence (P35348 whole entry): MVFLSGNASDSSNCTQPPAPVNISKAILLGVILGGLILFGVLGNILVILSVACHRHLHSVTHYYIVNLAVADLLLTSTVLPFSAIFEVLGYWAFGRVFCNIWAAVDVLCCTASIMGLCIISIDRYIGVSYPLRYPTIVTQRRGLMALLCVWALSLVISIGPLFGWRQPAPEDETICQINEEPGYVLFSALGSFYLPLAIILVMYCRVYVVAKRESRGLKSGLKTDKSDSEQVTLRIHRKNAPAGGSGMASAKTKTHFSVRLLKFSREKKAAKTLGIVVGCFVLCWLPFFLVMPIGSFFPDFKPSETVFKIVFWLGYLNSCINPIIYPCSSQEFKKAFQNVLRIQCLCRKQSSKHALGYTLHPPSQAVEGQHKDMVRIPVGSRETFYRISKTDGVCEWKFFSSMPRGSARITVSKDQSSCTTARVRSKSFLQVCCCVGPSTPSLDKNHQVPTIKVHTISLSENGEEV
The format is functional, cell-based.

Assay [8] has as its target T6, Muscarinic acetylcholine receptor M2 (Homo sapiens, UniProt P08172).
T6 sequence (P08172 whole entry): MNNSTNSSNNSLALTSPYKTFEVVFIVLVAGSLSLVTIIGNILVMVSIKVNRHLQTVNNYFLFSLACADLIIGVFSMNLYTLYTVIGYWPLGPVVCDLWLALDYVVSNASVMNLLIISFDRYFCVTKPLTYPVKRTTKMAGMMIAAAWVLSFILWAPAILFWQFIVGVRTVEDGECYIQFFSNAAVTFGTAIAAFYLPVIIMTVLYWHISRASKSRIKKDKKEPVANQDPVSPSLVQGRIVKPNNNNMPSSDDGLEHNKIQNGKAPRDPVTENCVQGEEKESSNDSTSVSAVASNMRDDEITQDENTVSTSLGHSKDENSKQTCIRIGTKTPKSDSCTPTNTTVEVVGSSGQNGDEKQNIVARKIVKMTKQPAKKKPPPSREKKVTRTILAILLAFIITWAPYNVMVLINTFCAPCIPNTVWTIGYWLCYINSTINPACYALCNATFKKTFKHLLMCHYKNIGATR

The target in the next assay is Prothrombin (Homo sapiens, UniProt P00734). The format is functional.
Assay [9] addresses Sodium-dependent noradrenaline transporter (Homo sapiens, UniProt P23975).

Some results are limits rather than exact numbers.
Further: assay procedure not described here.

Sodium channel protein type 5 subunit alpha, sequence (Q14524 whole entry): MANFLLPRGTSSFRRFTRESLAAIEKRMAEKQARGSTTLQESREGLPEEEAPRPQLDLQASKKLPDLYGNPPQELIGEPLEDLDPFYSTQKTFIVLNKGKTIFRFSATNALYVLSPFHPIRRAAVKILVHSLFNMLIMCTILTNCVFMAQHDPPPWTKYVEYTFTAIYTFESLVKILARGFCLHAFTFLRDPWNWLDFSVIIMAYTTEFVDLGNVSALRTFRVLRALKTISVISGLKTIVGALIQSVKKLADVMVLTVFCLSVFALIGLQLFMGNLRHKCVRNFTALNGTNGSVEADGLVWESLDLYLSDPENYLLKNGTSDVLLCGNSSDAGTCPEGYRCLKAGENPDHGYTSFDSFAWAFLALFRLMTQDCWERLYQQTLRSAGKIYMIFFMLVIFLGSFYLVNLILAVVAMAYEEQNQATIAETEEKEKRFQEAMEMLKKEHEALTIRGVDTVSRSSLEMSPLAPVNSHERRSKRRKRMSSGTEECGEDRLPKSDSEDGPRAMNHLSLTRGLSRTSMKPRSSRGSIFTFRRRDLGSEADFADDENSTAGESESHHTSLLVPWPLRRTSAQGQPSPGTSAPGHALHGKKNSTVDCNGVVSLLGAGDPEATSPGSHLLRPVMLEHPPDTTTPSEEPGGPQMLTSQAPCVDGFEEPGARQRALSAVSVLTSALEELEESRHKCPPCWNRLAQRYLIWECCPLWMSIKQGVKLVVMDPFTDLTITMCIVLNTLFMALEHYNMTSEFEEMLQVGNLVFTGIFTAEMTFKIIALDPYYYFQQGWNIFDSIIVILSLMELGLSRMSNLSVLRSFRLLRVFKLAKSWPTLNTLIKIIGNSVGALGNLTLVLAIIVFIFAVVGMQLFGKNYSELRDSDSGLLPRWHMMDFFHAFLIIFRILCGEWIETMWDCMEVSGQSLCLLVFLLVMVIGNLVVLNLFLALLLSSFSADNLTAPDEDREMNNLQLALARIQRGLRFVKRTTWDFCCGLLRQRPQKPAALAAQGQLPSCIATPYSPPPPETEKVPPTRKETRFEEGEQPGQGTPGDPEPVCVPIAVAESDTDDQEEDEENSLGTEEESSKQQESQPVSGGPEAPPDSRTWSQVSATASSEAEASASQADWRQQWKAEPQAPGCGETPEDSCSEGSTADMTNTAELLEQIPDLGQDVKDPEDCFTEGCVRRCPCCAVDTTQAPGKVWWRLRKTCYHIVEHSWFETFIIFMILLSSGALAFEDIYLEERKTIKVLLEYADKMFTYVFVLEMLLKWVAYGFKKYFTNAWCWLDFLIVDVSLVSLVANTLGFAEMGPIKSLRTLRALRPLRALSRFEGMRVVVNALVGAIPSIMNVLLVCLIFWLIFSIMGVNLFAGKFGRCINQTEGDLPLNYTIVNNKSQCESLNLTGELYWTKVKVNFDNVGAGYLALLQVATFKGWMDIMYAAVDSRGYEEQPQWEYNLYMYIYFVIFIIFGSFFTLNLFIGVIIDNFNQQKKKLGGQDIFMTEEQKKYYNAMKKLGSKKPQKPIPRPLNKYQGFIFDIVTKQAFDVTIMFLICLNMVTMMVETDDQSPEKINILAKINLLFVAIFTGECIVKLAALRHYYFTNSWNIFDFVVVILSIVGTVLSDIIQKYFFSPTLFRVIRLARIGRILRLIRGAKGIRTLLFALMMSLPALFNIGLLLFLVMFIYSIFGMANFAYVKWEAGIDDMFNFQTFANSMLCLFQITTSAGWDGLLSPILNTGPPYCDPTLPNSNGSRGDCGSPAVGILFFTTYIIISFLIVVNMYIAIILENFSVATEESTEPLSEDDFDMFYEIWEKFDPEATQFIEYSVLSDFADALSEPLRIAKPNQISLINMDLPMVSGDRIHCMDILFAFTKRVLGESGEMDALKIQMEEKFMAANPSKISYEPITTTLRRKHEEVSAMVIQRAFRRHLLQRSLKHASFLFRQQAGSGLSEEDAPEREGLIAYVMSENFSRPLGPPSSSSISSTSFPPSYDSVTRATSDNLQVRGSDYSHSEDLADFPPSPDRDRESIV
Neurotensin receptor type 1, sequence (P30989 whole entry): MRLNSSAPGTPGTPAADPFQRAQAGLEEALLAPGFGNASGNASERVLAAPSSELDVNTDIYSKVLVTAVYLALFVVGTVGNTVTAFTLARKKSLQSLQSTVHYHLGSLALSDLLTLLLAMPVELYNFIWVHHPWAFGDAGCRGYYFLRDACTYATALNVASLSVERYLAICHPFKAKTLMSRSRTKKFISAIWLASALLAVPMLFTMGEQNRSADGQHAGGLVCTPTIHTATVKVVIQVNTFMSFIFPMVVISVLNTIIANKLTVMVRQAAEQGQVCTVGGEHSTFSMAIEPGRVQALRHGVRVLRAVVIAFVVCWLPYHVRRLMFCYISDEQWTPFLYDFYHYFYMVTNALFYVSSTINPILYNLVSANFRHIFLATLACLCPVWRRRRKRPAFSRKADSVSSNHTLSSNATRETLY
Beta-1 adrenergic receptor, sequence (P08588 whole entry): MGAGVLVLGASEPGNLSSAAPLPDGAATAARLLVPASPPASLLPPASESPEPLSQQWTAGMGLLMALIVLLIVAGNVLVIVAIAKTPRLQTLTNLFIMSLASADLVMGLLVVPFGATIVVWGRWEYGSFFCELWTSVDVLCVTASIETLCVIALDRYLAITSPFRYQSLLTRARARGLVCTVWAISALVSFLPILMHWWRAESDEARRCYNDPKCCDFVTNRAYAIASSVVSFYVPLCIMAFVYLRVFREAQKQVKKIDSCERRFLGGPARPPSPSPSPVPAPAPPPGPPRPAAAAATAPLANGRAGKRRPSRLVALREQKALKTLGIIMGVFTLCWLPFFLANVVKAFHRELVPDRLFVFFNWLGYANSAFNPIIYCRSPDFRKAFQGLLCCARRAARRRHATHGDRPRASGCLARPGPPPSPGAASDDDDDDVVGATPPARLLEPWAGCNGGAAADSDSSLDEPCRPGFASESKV
Sodium-dependent noradrenaline transporter, sequence (P23975 whole entry): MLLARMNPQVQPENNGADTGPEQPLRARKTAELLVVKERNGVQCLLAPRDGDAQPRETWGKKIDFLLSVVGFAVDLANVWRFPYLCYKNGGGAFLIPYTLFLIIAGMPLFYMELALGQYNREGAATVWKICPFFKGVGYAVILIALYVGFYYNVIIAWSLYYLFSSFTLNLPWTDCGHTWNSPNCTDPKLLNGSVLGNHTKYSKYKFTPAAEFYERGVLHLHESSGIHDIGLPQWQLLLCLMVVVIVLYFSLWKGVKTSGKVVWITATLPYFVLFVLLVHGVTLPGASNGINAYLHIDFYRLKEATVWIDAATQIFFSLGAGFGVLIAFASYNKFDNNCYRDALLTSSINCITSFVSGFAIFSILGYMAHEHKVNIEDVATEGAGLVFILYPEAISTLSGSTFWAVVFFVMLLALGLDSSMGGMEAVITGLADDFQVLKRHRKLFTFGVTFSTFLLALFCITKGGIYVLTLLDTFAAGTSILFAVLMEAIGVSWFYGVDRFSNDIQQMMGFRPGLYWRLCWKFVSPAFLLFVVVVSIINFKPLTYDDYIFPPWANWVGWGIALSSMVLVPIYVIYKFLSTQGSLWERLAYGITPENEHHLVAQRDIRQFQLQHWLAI
Substance-P receptor, sequence (P25103 whole entry): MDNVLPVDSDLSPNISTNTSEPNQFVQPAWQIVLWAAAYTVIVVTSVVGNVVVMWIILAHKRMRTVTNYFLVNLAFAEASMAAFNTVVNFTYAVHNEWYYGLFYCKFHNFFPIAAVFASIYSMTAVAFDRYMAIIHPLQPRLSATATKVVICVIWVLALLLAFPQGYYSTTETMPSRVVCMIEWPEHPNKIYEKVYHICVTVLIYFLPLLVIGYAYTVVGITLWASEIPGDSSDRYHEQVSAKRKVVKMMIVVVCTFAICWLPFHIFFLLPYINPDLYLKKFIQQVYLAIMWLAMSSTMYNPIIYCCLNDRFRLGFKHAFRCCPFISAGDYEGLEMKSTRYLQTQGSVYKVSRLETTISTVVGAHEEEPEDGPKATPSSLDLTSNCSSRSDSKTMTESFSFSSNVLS

The term AC50 denotes the concentration at which the activity in the assay is half-maximal. Lower therefore signals activity at low concentration. As for `Cc1c(OCC(F)(F)F)ccnc1C[S+]([O-])c1nc2ccccc2[nH]1` (centres undefined) [LANSOPRAZOLE], the AC50 (at B1 bradykinin receptor; in assay [1]; in assay [2]; in [3]; in [4]; in assay [5]) was > 30 µM each time. Moreover, at Substance-P receptor, the AC50 stood at 17.2 µM.

On to `C#C[C@]1(O)CC[C@H]2[C@@H]3[C@H](C)CC4=C(CCC(=O)C4)[C@H]3CC[C@@]21C` [TIBOLONE], for which, in assay [6], the AC50 was > 30 µM.

Turning to `CO[C@]12C[C@@H](COC(=O)c3cncc(Br)c3)CN(C)[C@@H]1Cc1cn(C)c3cccc2c13` [NICERGOLINE], the AC50 in [7] is 21.8 µM; in assay [8], 7.93 µM; at Prothrombin, > 30 µM; in assay [9], 11.1 µM.

With `COc1cccc(C2(O)CCCCC2CN(C)C)c1` (centres undefined) [TRAMADOL], the AC50 was > 30 µM at B1 bradykinin receptor; > 30 µM in assay [1]; > 30 µM in [2]; > 30 µM in assay [3]; > 30 µM in [4]; > 10 µM at Substance-P receptor.

As to `C[C@@H]1O[C@@H](O[C@@H]2C=C3CC[C@@H]4[C@H](CC[C@]5(C)[C@@H](c6ccc(=O)oc6)CC[C@]45O)[C@@]3(C)CC2)[C@H](O)[C@H](O)[C@H]1O` [PROSCILLARIDIN], the AC50 in assay [6] is > 30 µM.

As for THIMEROSAL, the AC50 in assay [7] was > 30 µM; in assay [8], > 30 µM; at Prothrombin it was > 30 µM; in [5], > 50 µM; in assay [9] it was > 30 µM.
